In patent publication US20160089410A1, “COMPOSITION FOR NOURISHING INJURED HUMAN TROPHOBLAST CELLS AND INHIBITING APOPTOSIS THEREIN” (priority 2014, published 2016):
Marks after values point to notes of the source that are not given here.

How the values were obtained:
Type in all cases: cell-based, human
trophoblast cells [1] = test: Annexin V/PI flow cytometry assay on early stage apoptosis in Mifepristone-Trophoblast Cell Model; settings: comparative study, mifepristone induced model
Method: For example, the effect of apoptotic mRNA expressions in trophoblastic cells treated by mifepristone for 24 hours is shown in FIG. 3.
The experimental data on the cell proliferation rate, early apoptosis rate, Caspase-3 protein expression and cell supernatants HCG level expression were then subject to stepwise regression analysis, canonical correlation analysis and result optimization analysis. From these analyses, it is concluded that the preferred ratio among X1:X2:X3:X4:X5 is 0.9:0.00342:0.09037:0.0795:0. […] The number means the percentage of the cells underwent apoptosis.
(§1) Hyperoside and asperosaponin are individual compounds isolated from herbal medicines cuscuta chinensis and taxillus sutchuenensis, respectively. Progesterone is a compound often used to prevent spontaneous abortion and was used in present invention as positive treatment control for comparison with of the novel composition of the present invention.
The cells 4×10^5 cells/ml were seeded in the 6-well plate, 1 ml per well and incubated at 37° C., 5% CO2 for 48 h. Then, the cells were grouped and treated accordingly (see above). The assays were conducted as follows:
At the end of the predetermined treatment, the cells were digested and spun down(2000 rpm×5 min centrifugation). Discard the medium, wash the cells twice with cold PBS (resuspension and then 2000 rpm×5 min centrifugation). Remove the supernatant and resuspend the cell in 400 μl 1×Annexin V binding solution. Then, add 5 μl AnnexinV-EGFP staining solution to the cell suspension and mix gently. Incubate the cells at 2-8° C. in dark for 15 minutes. Add 10 μl PI (propidium iodide) and mix gently and incubate the cells in dark at 2-8° C. for 5 min. Detection by flow cytometry was conducted within one hour. The detection was repeated three times.

XIAP mRNA = test: Quantitative PCR assay on XIAP mRNA; settings: ΔΔCt, mifepristone induced model, time point not given
Description: as §1
(§2) Design of primers: Based on search for the sequence of the target gene mRNA in GenBank, the following primers were designed: […]
(§3) Total RNA extraction: Cells 4×10^5 cells/ml were seeded in the 6-well plate, 1 ml per well, and incubated at 37° C., 5% CO2 for 48 h. Then, the cells were grouped and treated according to the experiment scheme (see above). Extraction was conducted at two time points: 24 h and 24-24 h (24 hours of agent treatment and 24 hours after removing the agent), according to the procedures described as follows:
(§4) Placed the cells in the 1.5 ml EP tube, add Trizol 1 ml, and mix by shaking. Add chloroform 0.2 ml, cover tightly, and shake vigorously for 15 s. Store it at 4° C. for 2-3 min, centrifugal at 4° C., 12000 rpm×15 min. Transfer the supernatant to a new 1.5 ml EP tube, add an equal volume of isopropanol, incubate at 4° C. for 10 min, and centrifuge 4° C., 12000 rpm×10 min. After discarding the supernatant, add 75% ethanol (containing DEPC water) to wash the precipitate once, centrifugal 4° C. 7500 rpm×5 min, and discard ethanol. Air or vacuum dry for 5-10 min (not completely dry), add DEPC water to dissolve RNA, store at −80° C. for further process.
(§5) Reverse transcription: In a sterile 0.2 ml centrifuge tubes, prepare the reaction according to the following:
(§6) Quantitative PCR:experimental design is in accordance with standard ΔΔCt analytical method. The experimental procedure is as follows:
(§7) (2) Prepare reaction mix (performed on ice):
(§8) (3) PCR reaction: using a standard three-step reaction procedure: […]

Bcl-2 mRNA = test: Quantitative PCR assay on Bcl-2 mRNA; settings: ΔΔCt, mifepristone induced model, time point not given
Description: as §1, §2, §3, §4, §5, §6, §7, §8

Bax = test: Western blot assay on Bax expression in trophoblastic cells; settings: mifepristone induced model, Blank = 1.000
Method: as §1
(§9) Extraction of total cellular protein and cytoplasmic protein: The cells 4×10^5 cells/ml were seeded in the 6-well plate. After incubating at 37° C., 5% CO2 for 44 hours, the cells are grouped and treated according to the experiment scheme (see above). Extraction conducted at two treatment points: 24-24 h (treat with agent for 24 hours and continue incubation for 24 hours after removing the agent) and 24-48 h (treat with agent for 24 hours and continue incubation for 48 hours after removing the agent). The assays were conducted as follows:
(§10) At each predetermined time point, discard the culture medium, wash the cells three times with cold PBS solution, 3 min each time. After removing PBS, put the cells on ice. Add lysis buffer, 150 μl per well, and then place the cells on ice for 5 min, scrape the surface cells and transfer the cell lysate to an EP tube. Put the tube on ice for 30 min. After centrifuge (4° C., 12000 rpm/min, 15 min), transfer the supernatant to the EP tube and store it at −20° C. Determine the protein concentration with the BCA method and adjust the protein concentration to the same level. Add 3 μl 5× SDS-PAGE sampling buffer, denature at 100° C. for 5 min, and store the samples at −20° C. for Western Blotting. The Western Blotting procedure was conducted in a standard manner known in the art, description of which is omitted herewith for the sake of brevity.

trophoblast cells [2] = test: MTT assay on cell proliferation in mifepristone induced trophoblast model; settings: Blank = 1.0000
Method: as §1
The trophoblast cells (adjust to 1.5×10^4/ml) were seeded in wells on a 96-well plate, […]. After incubating for 48 hours at 37° C., 5% CO2, the cells were grouped and treated accordingly (see above). Assays were conducted after treatment for 24 h and 48 h according to the following procedure:
Add 10 μl 1×MTT (3-(4,5-dimethylthiazol-2-yl)-2,5-diphenyltetrazolium bromide) to the well and continue incubation at 37° C., 5% CO2 for 4 hours to reduce MTT to formazan. Remove the supernatant from the well and add to each well 150 μl DMSO (dimethylsulfoxide) to dissolve formazan. After shaking the 96 plate for 10 min to make crystals completely dissolved, determine the OD value at 490 nm with a enzyme immunoassay analyzer. The determination was repeated three times.

Caspase-9 = test: Western blot assay on Caspase-9 expression in trophoblastic cells; settings: mifepristone induced model, Blank = 1.000
Method: as §1, §9, §10

BcI-2/Bax = test: Western blot assay on Bcl-2/Bax expression ratio in trophoblastic cells; settings: mifepristone induced model, Blank = 1.000
Method: Hyperoside and asperosaponin are individual compounds isolated from herbal medicines cuscuta chinensis and taxillus sutchuenensis, respectively.
as §9, §10

Caspase-3 mRNA = test: Quantitative PCR assay on Caspase-3 mRNA; settings: ΔΔCt, mifepristone induced model, time point not given
Description: as §1, §2, §3, §4, §5, §6, §7, §8

β-HCG = test: Radioimmunoassay on HCG expression in cell supernatant; settings: mifepristone induced model; duration of treatment 48 h
Method: as §1
The cells (4×10^5 cells/ml) were seeded in the 6-well plate, 1 ml per well, and incubated at 37° C., 5% CO2 for 48 hours. Then, the cells were grouped and treated accordingly (see above). After 48 hour treatment, cell supernatants were collected and sent to the Department of Nuclear Medicine, Guangzhou University of Traditional Chinese Medicine, for measuring HCG (human chorionic gonadotropin) via a routine radioimmunoassay procedure.

Caspase-9 mRNA = test: Quantitative PCR assay on Caspase-9 mRNA; settings: ΔΔCt, mifepristone induced model, time point not given
Description: as §1, §2, §3, §4, §5, §6, §7, §8

Caspase-3 = test: Western blot assay on Caspase-3 expression in trophoblastic cells; settings: mifepristone induced model, Blank = 1.000
Method: as §1, §9, §10

Bax mRNA = test: Quantitative PCR assay on Bax mRNA; settings: ΔΔCt, mifepristone induced model, time point not given
Description: as §1, §2, §3, §4, §5, §6, §7, §8

XIAP = test: Western blot assay on XIAP expression in trophoblastic cells; settings: mifepristone induced model, Blank = 1.000
Method: as §1, §9, §10

Bcl-2 mRNA/Bax mRNA = test: Quantitative PCR assay, Bcl-2 mRNA/Bax mRNA ratio; settings: ΔΔCt, mifepristone induced model, time point not given
Description: as §1, §2, §3, §4, §5, §6, §7, §8

SMILES: CC1(C)CC[C@]2(C(=O)O[C@@H]3O[C@H](CO[C@@H]4O[C@H](CO)[C@@H](O)[C@H](O)[C@H]4O)[C@@H](O)[C@H](O)[C@H]3O)CC[C@]3(C)C(=CC[C@@H]4[C@@]5(C)CC[C@H](O[C@@H]6OC[C@H](O)[C@H](O)[C@H]6O)[C@@](C)(CO)[C@@H]5CC[C@]43C)[C@@H]2C1 [Asperosaponin, asperosaponin]
- early stage apoptosis, percentage of cells underwent apoptosis (Annexin V FITC/PI) (trophoblast cells [1]; duration of treatment 24 h): 16.067 ± 2.974 **^ΔΔ %
- early stage apoptosis, percentage of cells underwent apoptosis (Annexin V FITC/PI) (trophoblast cells [1]; duration of treatment 48 h): 15.933 ± 3.742 %
- XIAPmRNA level (XIAP mRNA): 1.253 ± 1.540
- Bcl-2 mRNA level (Bcl-2 mRNA): 4.908 ± 3.037
- Bax expression, relative amount of protein compared with Blank (Bax; 24 h): 1.503 ± 0.180^ΔΔ▾▾
- Bax expression, relative amount of protein compared with Blank (Bax; 48 h): 1.804 ± 0.558
- cell proliferation rate as compared to the Blank (MTT) (trophoblast cells [2]; duration of treatment 24 h): 0.787 ± 0.086
- cell proliferation rate as compared to the Blank (MTT) (trophoblast cells [2]; duration of treatment 48 h): 0.809 ± 0.019
- Caspase-9 expression, relative amount of protein compared with Blank (Caspase-9; 24 h): 1.962 ± 0.273^Δ
- Caspase-9 expression, relative amount of protein compared with Blank (Caspase-9; 48 h): 1.887 ± 0.742
- BcI-2/Bax expression ratio, relative ratio of the proteins compared with Blank (BcI-2/Bax; 24 h): 1.905 ± 0.297**^ΔΔ∇∇▴▴
- BcI-2/Bax expression ratio, relative ratio of the proteins compared with Blank (BcI-2/Bax; 48 h): 1.503 ± 0.454
- Caspase-3 mRNA level (Caspase-3 mRNA): 2.783 ± 0.541
- β-HCG level in cell supernatant (β-HCG): 0.870 ± 0.026 MIU/ML
- Caspase-9 mRNA level (Caspase-9 mRNA): 1.240 ± 0.945
- Caspase-3 expression, relative amount of protein compared with Blank (Caspase-3; 24 h): 1.372 ± 0.338^Δ
- Caspase-3 expression, relative amount of protein compared with Blank (Caspase-3; 48 h): 1.508 ± 0.217*^ΔΔ▴▴□
- BaxmRNA level (Bax mRNA): 3.181 ± 1.576
- XIAP expression, relative amount of protein compared with Blank (XIAP; 24 h): 2.127 ± 0.421
- XIAP expression, relative amount of protein compared with Blank (XIAP; 48 h): 1.706 ± 0.492
- Bcl-2 mRNA/BaxmRNA (Bcl-2 mRNA/Bax mRNA): 1.88 ± 1.196

SMILES: O=c1c(O[C@@H]2O[C@H](CO)[C@H](O)[C@H](O)[C@H]2O)c(-c2ccc(O)c(O)c2)oc2cc(O)cc(O)c12 [Hyperoside, hyperoside]
- early stage apoptosis, percentage of cells underwent apoptosis (Annexin V FITC/PI) (trophoblast cells [1]; duration of treatment 24 h): 16.367 ± 1.942 **^ΔΔ %
- early stage apoptosis, percentage of cells underwent apoptosis (Annexin V FITC/PI) (trophoblast cells [1]; duration of treatment 48 h): 15.633 ± 2.136 %
- XIAPmRNA level (XIAP mRNA): 1.315 ± 0.706
- Bcl-2 mRNA level (Bcl-2 mRNA): 2.726 ± 1.419
- Bax expression, relative amount of protein compared with Blank (Bax; 24 h): 1.687 ± 0.519*^ΔΔ▴▴▾▾
- Bax expression, relative amount of protein compared with Blank (Bax; 48 h): 2.544 ± 0.383
- cell proliferation rate as compared to the Blank (MTT) (trophoblast cells [2]; duration of treatment 24 h): 0.788 ± 0.072
- cell proliferation rate as compared to the Blank (MTT) (trophoblast cells [2]; duration of treatment 48 h): 0.869 ± 0.029
- Caspase-9 expression, relative amount of protein compared with Blank (Caspase-9; 24 h): 2.079 ± 0.267^Δ
- Caspase-9 expression, relative amount of protein compared with Blank (Caspase-9; 48 h): 2.221 ± 0.651
- BcI-2/Bax expression ratio, relative ratio of the proteins compared with Blank (BcI-2/Bax; 24 h): 1.544 ± 0.726^ΔΔ∇∇
- BcI-2/Bax expression ratio, relative ratio of the proteins compared with Blank (BcI-2/Bax; 48 h): 0.518 ± 0.186
- Caspase-3 mRNA level (Caspase-3 mRNA): 4.640 ± 1.865^Δ
- β-HCG level in cell supernatant (β-HCG): 1.377 ± 0.142 MIU/ML
- Caspase-9 mRNA level (Caspase-9 mRNA): 3.512 ± 3.828
- Caspase-3 expression, relative amount of protein compared with Blank (Caspase-3; 24 h): 1.847 ± 0.123
- Caspase-3 expression, relative amount of protein compared with Blank (Caspase-3; 48 h): 1.648 ± 0.206**^Δ▴
- BaxmRNA level (Bax mRNA): 2.469 ± 1.058^Δ
- XIAP expression, relative amount of protein compared with Blank (XIAP; 24 h): 1.528 ± 0.317
- XIAP expression, relative amount of protein compared with Blank (XIAP; 48 h): 1.673 ± 0.768
- Bcl-2 mRNA/BaxmRNA (Bcl-2 mRNA/Bax mRNA): 1.470 ± 1.321

SMILES: CC(=O)[C@H]1CC[C@H]2[C@@H]3CCC4=CC(=O)CC[C@]4(C)[C@H]3CC[C@]12C [Positive Control, progesterone]
- early stage apoptosis, percentage of cells underwent apoptosis (Annexin V FITC/PI) (trophoblast cells [1]; duration of treatment 24 h): 17.400 ± 1.229 **^ΔΔ %
- early stage apoptosis, percentage of cells underwent apoptosis (Annexin V FITC/PI) (trophoblast cells [1]; duration of treatment 48 h): 16.367 ± 1.447 %
- XIAPmRNA level (XIAP mRNA): 1.037 ± 0.425
- Bcl-2 mRNA level (Bcl-2 mRNA): 2.971 ± 2.839
- cell proliferation rate as compared to the Blank (MTT) (trophoblast cells [2]; duration of treatment 24 h): 0.805 ± 0.030
- cell proliferation rate as compared to the Blank (MTT) (trophoblast cells [2]; duration of treatment 48 h): 0.825 ± 0.061
- BcI-2/Bax expression ratio, relative ratio of the proteins compared with Blank (BcI-2/Bax; 24 h): 0.537 ± 0.051
- Caspase-3 mRNA level (Caspase-3 mRNA): 3.089 ± 1.778^ΔΔ
- β-HCG level in cell supernatant (β-HCG): 1.067 ± 0.038*^Δ MIU/ML
- Caspase-9 mRNA level (Caspase-9 mRNA): 1.286 ± 0.780
- BaxmRNA level (Bax mRNA): 0.442 ± 0.442^ΔΔ
- Bcl-2 mRNA/BaxmRNA (Bcl-2 mRNA/Bax mRNA): 7.351 ± 6.001
